Measured values from US8877765B2, “Highly soluble pyrimido-dione-quinoline compounds and their use in the treatment of cancer” (The United States of America as represented by the …, priority 2006, dated 2014).
Where a SMILES comes first, the peptide text is derived from it. [ ]: non-standard residue; d: D form. Nle = CCCC[C@H](N)C(=O)O

How the values were obtained:
Hdm2 and p53 = test: Accumulation of Hdm2 and p53 in non-transformed RPE cells (immunoblot); format: cell-based, human; conditions: 8 hours, 5 μM or 10 μM solution in PBS, or 5 μm solution in DMSO, FIG. 1
Method: Human retina pigment epithelial (RPE) cells were cultured with HyQ DME/F (HyClone) supplemented with 10% FCS and 2.5% Sodium Bicarbonate. They were harvested with Trpsin-EDTA and seeded into a 12-well tissue culture cluster and incubated for 18-40 hours to reach 80% confluent. Following treatment with indicated compounds for 8 hours, the cells were harvested and lysed with RIPA buffer. Following removal of insoluble pellet by centrifugation for 20 minutes at 10000 rpm, the lysate was separated on a 4-20% gradient SDS-polyacrylamide gel and transferred onto nitrocellulose membrane. The membrane was then blotted with anti-p53 antibody (DO-1) anti-Hdm2 antibodies (Ab-1 and Ab-2). After extensive washing with PBS containing 0.5% Triton x-100, it was incubated with HRP-conjugated donkey anti-mouse antibody and visualized using enhanced chemiluminescence.

[1] = Additional experiments on DNA damage (data not shown)
[2] = system: tumor cells expressing wild type p53; test: Apoptosis-inducing activity in tumor cell lines that do or do not express p53; format: cell-based; conditions: pair of cell lines that either do or do not express p53; FIG. 7
gp78 (AMFR) = gp78 (AMFR) (Homo sapiens, UniProt Q9UKV5); test: E3 specificity: level of transfected gp78 in MEFs expressing neither Mdm2 nor p53; conditions: immunoblotting, FIG. 5
Excerpt: (§1) Following treatment with ALLN, 1, 2 (10-(4-methyl-phenyl)-7-nitro-10H-pyrimido[4,5-b]quinoline-2,4-dione), 3 (10-(4-chloro-phenyl)-7-nitro-10H-pyrimido[4,5-b]quinoline-2,4-dione), and 4 (10-(3-chloro-phenyl)-7-nitro-10H-pyrimido[4,5-b]quinoline-2,4-dione), levels of the E3s were examined by immunoblotting with specific antibodies.

p53 = p53 response element-driven luciferase reporter in U2OS cells; format: cell-based; conditions: 18 hours, FIG. 3
Method: U2OS cells stably transfected with a p53 response element-driven luciferase were treated with indicated concentration of compounds for 18 hours. The cells were then harvested and lysed to measure luciferase activity using the luciferase assay system (Promega) according to manufacturer's instruction.

Hdm2 [3] = biological target: T1, Hdm2 (Homo sapiens, UniProt Q00987); test: E3 specificity: level of transfected Hdm2 in MEFs expressing neither Mdm2 nor p53; conditions: immunoblotting, FIG. 5
Excerpt: as §1

AO7 (RNF25) = test: E3 specificity: level of transfected AO7 in MEFs expressing neither Mdm2 nor p53; conditions: immunoblotting, FIG. 5
Excerpt: as §1

Hdm2 [4] = biological target: T1, Hdm2; conditions: U2OS cells; FIG. 6

T1 sequence (Q00987 whole entry): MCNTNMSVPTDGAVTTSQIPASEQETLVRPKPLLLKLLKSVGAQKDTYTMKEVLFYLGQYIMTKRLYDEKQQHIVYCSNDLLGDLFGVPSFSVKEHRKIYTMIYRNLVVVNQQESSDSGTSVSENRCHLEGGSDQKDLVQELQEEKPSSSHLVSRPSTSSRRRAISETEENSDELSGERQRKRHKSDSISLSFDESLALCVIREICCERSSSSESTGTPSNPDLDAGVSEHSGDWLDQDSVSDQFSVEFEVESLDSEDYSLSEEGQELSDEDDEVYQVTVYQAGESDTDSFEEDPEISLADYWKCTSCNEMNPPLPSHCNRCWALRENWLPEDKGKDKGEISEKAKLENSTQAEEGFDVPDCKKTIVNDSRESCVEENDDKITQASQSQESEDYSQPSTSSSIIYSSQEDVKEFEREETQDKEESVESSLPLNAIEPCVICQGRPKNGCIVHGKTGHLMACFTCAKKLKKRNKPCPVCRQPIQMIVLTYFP
gp78 (AMFR), sequence (Q9UKV5 whole entry, species assumed): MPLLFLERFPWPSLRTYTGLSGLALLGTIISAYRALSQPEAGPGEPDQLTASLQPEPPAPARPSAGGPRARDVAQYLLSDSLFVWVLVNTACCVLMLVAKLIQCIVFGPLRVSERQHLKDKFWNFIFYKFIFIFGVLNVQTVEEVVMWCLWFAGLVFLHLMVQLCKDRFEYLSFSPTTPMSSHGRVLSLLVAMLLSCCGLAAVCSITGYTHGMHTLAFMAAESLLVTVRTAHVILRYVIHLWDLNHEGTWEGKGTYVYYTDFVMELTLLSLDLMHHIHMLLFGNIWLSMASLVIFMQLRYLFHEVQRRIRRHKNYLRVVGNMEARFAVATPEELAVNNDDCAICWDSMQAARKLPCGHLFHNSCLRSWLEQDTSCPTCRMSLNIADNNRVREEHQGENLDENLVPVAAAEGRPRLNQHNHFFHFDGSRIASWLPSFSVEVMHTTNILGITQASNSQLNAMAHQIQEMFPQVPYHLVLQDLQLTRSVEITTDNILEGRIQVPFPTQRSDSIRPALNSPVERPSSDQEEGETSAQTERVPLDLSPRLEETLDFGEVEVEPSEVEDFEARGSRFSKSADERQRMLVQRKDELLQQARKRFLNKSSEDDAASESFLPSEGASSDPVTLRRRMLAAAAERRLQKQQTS

Row | level of gp78 (gp78 (AMFR)) | level of Hdm2 (Hdm2 [3]) | accumulation of ubiquitylated p53 (Hdm2 [4]) | degradation / stabilization of p53 and Hdm2 (Hdm2 [4]) | Compound | accumulation of both Hdm2 and p53 (Hdm2 and p53) | functioning by inducing DNA damage [1] | killing of tumor cells by p53 status [2] | capacity to activate a p53 reporter (luciferase activity) (p53) | p53 reporter activity compared with proteosome inhibitor and Adriamycin (p53; concentration of 10 μM) | level of AO7 (AO7 (RNF25))
1 | little effects |  |  |  | CN(C)CCCNc1c2c(=O)n(C)c(=O)nc-2n(C)c2ccccc12 [Compound 1, 5-(3-Dimethylamino-propylamino)-3,10-dimethyl-10H-pyrimido[4,5-b]quinoline-2,4-dione] | significant accumulation of both Hdm2 and p53 | ruled out | preferential killing of tumor cells expressing wild type p53 | high capacity to activate a p53 reporter | much greater than proteosome inhibitor and Adriamycin | 
2 | higher levels | higher levels | easily detectable | stabilized Hdm2 and p53 | CCCC[C@@H](C=O)NC(=O)[C@H](CC(C)C)NC(=O)[C@H](CC(C)C)NC(C)=O [ALLN] (Ac-Leu-Leu-[Nle]-aldehyde) |  |  |  |  |  | higher levels
